Experimental data from PubChem BioAssay AID179 (DTP/NCI, 2004).
Values joined by “and” are separate entries in the source; they are usually repeats but may differ in a detail not shown here. Equal entries are not always repeated. Active and inactive are the calls of the source.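 Rule for the calls: active = compounds giving half or more protection of infected cells from virus-caused growth loss, again on retest; inactive = the rest.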 Where a SMILES comes first, the peptide text is derived from it. The star is where a group is joined. Boc = CC(C)(C)OC(=O)*

System: CEM cells HIV-1 protection, formazan growth assay
Experiment: NCI AIDS Antiviral Assay
Conditions: for IC50: measured here: growth of uninfected CEM cells
In short: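 Screen of anti-HIV-1 activity in human CEM cells using a formazan-based growth measurement at five drug concentrations. Hits with 50% or greater protection were repeated, and confirmation required reproducible complete protection.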

| SMILES | EC50 [µM] | IC50 | outcome |
| --- | --- | --- | --- |
| NC(=O)NC1C(C(N)=O)N(Cc2ccccc2)C(=O)N1Cc1ccccc1 (stereo unspecified) | > 97.7 | > 97.7 µM |  |
| C/C(=N/NC(=S)N1CCCCC1)c1ccccc1O | > 200 | 91.2 µM |  |
| Oc1c(Br)cc(Br)cc1/C=C/NC(=S)NC1CC2CC1C1C=CCC21 (stereo unspecified) | > 200 | 3.02 µM |  |
| N#Cc1nc(COCCOCc2ccc(F)cc2)oc1N | > 200 | > 200 µM |  |
| COc1ccc(/C(C)=N\NS(=O)(=O)c2ccc(NC(C)=O)cc2)cc1 | > 182 | > 182 µM |  |
| CC(C)c1cccc2sc(NC(=O)C(=O)CC(=O)c3ccc(F)cc3)nc12 |  |  | inactive |
| N#Cc1c(N)sc(N)c1C#N | > 200 | 97.7 µM |  |
| C=C(C)C(=O)OC1C[C@H](COC(C)=O)C2CC=C(C)C2C2OC(=O)C(=C)[C@H]12 (stereo partly specified) | > 200 | 1.05 µM |  |
| CCSC(=O)C1(C)OC2CCCCC2C1=O (stereo unspecified) |  |  | inactive |
| CCOc1ccccc1NC(=O)CSc1nnc(Cc2ccccc2)o1 | > 182 | 10 µM |  |
| O=c1[nH]c(-n2[nH]c3c(c2=O)CCCC3)nc(O)c1-c1ccccc1 | > 200 | > 200 µM |  |
| Cc1cn(C(=O)NC23CC4CC(CC(C4)C2)C3)c(=O)[nH]c1=O | > 100 | 51.3 µM |  |
| CC(=O)N1N=C(c2ccc3ccccc3c2O)CC1C(=O)c1ccco1 (stereo unspecified) | > 200 | 23.4 µM |  |
| c1ccc(C2=Nc3nc4ccccc4n3C(c3ccccc3)C2)cc1 (stereo unspecified) | > 151 | > 151 µM |  |
| CCCCc1ccc(C(=O)O)nc1 |  |  | inactive |
| CC1=CCCC2C(C1)C(=O)CC(C)C2(C)CC/C(=C/CO)CO (stereo unspecified) |  |  | inactive |
| COc1c(O)cc2oc3cc(O)c(CC=C(C)C)c(O)c3c(=O)c2c1CC=C(C)C | > 229 | 16.6 µM and 10.7 µM |  |
| OCC(CO)CC1COc2ccccc2O1 (stereo unspecified) |  |  | inactive |
| O=c1ccn2n1CCCCC2 | > 200 | > 200 µM |  |
| COC1CC(COCc2ccccc2)CC(OC)O1 (stereo unspecified) | > 200 | 66.1 µM |  |
| Cc1ccc(C2(C(=O)O)CCCN2)cc1 (stereo unspecified) | > 200 | > 200 µM |  |
| O=C1OCC(Cc2ccc(O)c(O)c2)[C@H]1Cc1ccc(O)c(O)c1 (stereo partly specified) | > 200 | 19.1 µM |  |
| CN1C(=O)N/C(=C\c2ccc(S(=O)(=O)N/N=C/c3ccccc3)cc2)C1=O | > 200 | 5.25 µM |  |

| SMILES | EC50 [µM] | IC50 | outcome |
| --- | --- | --- | --- |
| Cc1cc2cc3ccc(Cl)nn3c2nn1 | > 200 | > 200 µM |  |
| CSc1ccc(/C=C2\C=Cc3ccccc32)cc1 | > 28.8 | > 28.8 µM |  |
| Cc1ccnc(SC(F)(F)c2nc3ccccc3o2)n1 | 0.263 | 2 µM |  |
| c1ccc(CN2C3C4N(Cc5ccccc5)C2C2N(Cc5ccccc5)C(C(N2Cc2ccccc2)N4Cc2ccccc2)N3Cc2ccccc2)cc1 | > 100 | > 100 µM |  |
| COc1cc(-c2ccc(Br)[nH]2)[nH]c1C=NCC(C)C | > 200 | 10.5 µM |  |
| NC1=Nc2ccccc2Sc2nccn21 | > 200 | 28.8 µM |  |
| CCN1C[C@]2(COC)[C@H](O)C[C@H](OC)[C@]34C1[C@H]([C@H](OC)[C@H]23)[C@]1(OC(C)=O)[C@H]2[C@@H](OC(=O)c3ccccc3)[C@](O)(C[C@H]24)[C@@H](OC)[C@@H]1O |  |  | inactive |
| Cc1ccc2oc(=O)c(C#N)c(/C=C\c3ccccc3O)c2c1 | > 100 | 5.62 µM |  |
| N.N.N.N.O=C([O-])C(=O)O.O=C([O-])C(=O)[O-].[Co+3] |  |  | inactive |
| CC1=NN(C(=O)CC(=O)Nc2cccc(Cl)c2)C(=O)C1N=Nc1ccc(C(=O)O)cc1 (stereo unspecified) | > 200 | 52.5 µM |  |
| N#CC1=C(N)CCC(C#N)(c2ccccc2)C1 (stereo unspecified) | > 200 | > 200 µM |  |
| CC1=CC(=O)/C(=C/N2C(=O)/C(=C\c3cccc(O)c3)SC2=S)C(=O)O1 | > 200 | 55 µM |  |
| CN(C)c1cc(CNCCS)nc(CNCCS)c1 | > 200 | 3.47 µM |  |
| COc1cc2c(cc1OCCCN1C(=O)c3cccc4cccc(c34)C1=O)N=C[C@@H]1CCCN1C2=O | 5.13 | 13.2 µM |  |
| Cn1c(=O)c(C(c2ccccc2)c2c(O)c3ccccc3n(C)c2=O)c(O)c2ccccc21 | > 22.9 | > 22.9 µM |  |
| COc1ccc(-c2cc(C(=O)O)c3cc4ccccc4cc3n2)cc1Br |  |  | inactive |
| CN(C(=O)c1ccccc1)c1ccc2c(c1)C(=O)c1ccccc1C2=O | > 15.1 | > 15.1 µM |  |
| CNP(=O)(Oc1cc(Cl)c(Cl)cc1Cl)N1CCN(c2ccccc2)CC1 (stereo unspecified) | > 58.9 | 30.9 µM |  |
| CC(=O)N1N(c2ccc([N+](=O)[O-])cc2)C(=O)C1(C)C | > 200 | > 200 µM |  |
| O=C1CCC2(CC1)SCCCS2 | > 339 | > 339 µM |  |
| Cc1occc1C(=S)Nc1ccc(Cl)c(C(=O)OC(C)(C)C)c1 | 0.0339 | 9.33 µM |  |
| CN(C)c1ccc(C(=C(c2ccc(N(C)C)cc2)c2ccc(N(C)C)cc2)c2ccc(N(C)C)cc2)cc1 | > 24.5 | 1 µM |  |
| O=c1onc(-c2ccccc2)c2ccccc12 | > 162 | > 162 µM |  |

| SMILES | EC50 [µM] | IC50 | outcome |
| --- | --- | --- | --- |
| Clc1ccc(CSc2nnc3c(n2)[nH]c2ccccc23)cc1 | > 200 | 42.7 µM |  |
| COC(=O)C1(Cc2ccc(C)cc2)Cc2c(C)cccc2C1=O (stereo unspecified) | > 200 | 8.91 µM |  |
| CCN(CC)c1ccc2cc(-n3nnc4ccccc43)c(=O)oc2c1 | > 8.13 | > 8.13 µM |  |
| O=[N+]([O-])c1ccc(SSc2ccc([N+](=O)[O-])cc2Cl)c(Cl)c1 | > 200 | 10 µM |  |
| O=C1CNC(=O)c2c(ncn2C2OC(CO)CC2O)N1 (stereo unspecified) | > 302 | > 302 µM |  |
| Fc1ccc(-c2sc(-c3ccsc3)cc2Cc2ccsc2)cc1 |  |  | inactive |
| CC(=O)C(=CC=C(c1ccc(N(C)C)cc1)c1ccc(N(C)C)cc1)C(C)=O | > 5.37 | 3.24 µM |  |
| CC1C(n2[nH]c(=O)n(C)c2=O)c2ccccc2-n2c(=O)n(C)c(=O)n21 (stereo unspecified) | > 64.6 | > 64.6 µM |  |
| CC1(CCCCO)C=CC(S(=O)(=O)c2ccccc2)CC1 (stereo unspecified) |  |  | inactive |
| Cn1c(=O)[nH]c(N2CCCC2)c(C#N)c1=S | > 200 | > 200 µM |  |
| N.N.N.N.N.N.[Br-].[Co+3] |  |  | inactive |
| Cc1ccc2oc3ccccc3c(=O)c2c1 | > 24.5 | > 24.5 µM |  |
| COc1ccc([C@H]2CC3C(=O)N(c4ccc(OC)cc4)C(=O)C3c3[nH]c4ccccc4c32)cc1 (stereo partly specified) | > 1.66 | > 1.66 µM |  |
| CCOC(=O)C1=CNN=CC12C(=O)C(C(=O)OCC)CC2C(=O)OCC (stereo unspecified) | > 245 | > 245 µM |  |
| CC(C)C1NC(=O)[C@H](C)OC(=O)[C@@H](C(C)C)NC(=O)[C@@H](C)OC(=O)C(C(C)C)NC(=O)[C@H](C)OC1=O (stereo partly specified) | > 251 | > 251 µM |  |
| CC1(C)C(=O)NC(=O)c2ccccc21 | > 200 | > 200 µM |  |
| CC(=O)NNc1nc(C)c(C(/C=C/c2ccc([N+](=O)[O-])cc2)=N/NC(N)=S)s1 | > 69.2 | > 69.2 µM |  |
| COc1c(Br)cc(C(=O)c2cc(Br)c(OC)c(C(=O)O)c2)cc1C(=O)O | > 1480 | > 1480 µM |  |
| NC(=O)CC[C@H]1C(=O)N=C(N)N1C(=O)OCc1ccccc1 | > 200 | > 200 µM |  |
| CC1=NN(C(=O)c2ccccc2O)C(=O)/C1=C/c1cccc([N+](=O)[O-])c1 | > 141 | 0.0977 µM |  |
| Cc1cc(Cl)ccc1N1C(=O)C(=O)C(c2nc3ccccc3s2)C(=O)C1=O | > 91.2 | > 91.2 µM |  |
| CCCCOP(=S)(OCCCC)SC1(SC)SSC=C1CC(C)(C)C (stereo unspecified) |  |  | inactive |
| CC(C)C1CN(C(=O)OCc2ccccc2)C2N1C(=O)C2(C)OCc1ccccc1 (stereo unspecified) | > 251 | 97.7 µM |  |

| SMILES | EC50 [µM] | IC50 | outcome |
| --- | --- | --- | --- |
| C[C@]12CC[C@H](O)CC1=CC[C@@H]1[C@@H]2CC[C@]2(C)/C(=N/OCCN3CCCC3)CC[C@@H]12 | > 200 | 9.33 µM |  |
| Nc1ncnc2c1ncn2CC(=O)NCCCCO | > 200 | > 200 µM |  |
| COc1cc(OC)cc(Oc2nc3ccc(C(F)(F)F)cc3nc2-c2ccccc2)c1 | > 200 | > 200 µM |  |
| c1cc2nnc1SCCSCCSc1ccc(nn1)SCCSCCS2 | > 200 | > 200 µM |  |
| Cc1ccc(S(=O)(=O)c2ccc(NC(=O)SCCC(=O)O)cc2)cc1 |  |  | inactive |
| COc1ccc(-c2cc(-c3ccccc3)nc3c2CC(=O)Nc2ccccc2-3)cc1OC | > 100 | 15.5 µM |  |
| COC(=O)NC(C(F)(F)F)(C(F)(F)F)P1(=O)OCCCO1 | > 200 | 63.1 µM |  |
| CC1C(=O)CCC1C(Sc1ccccc1)(Sc1ccccc1)Sc1ccccc1 (stereo unspecified) |  |  | inactive |
| O=C(O)CCSc1nnc(COc2ccc(Cl)cc2)n1-c1ccccc1 | > 200 | 67.6 µM |  |
| CC(C)=C=CP(=O)(O)c1ccccc1 | > 200 | > 200 µM |  |
| C=C1C(=O)C[C@@]23CCC[C@@]12CC(O)C3 (stereo partly specified) |  |  | inactive |
| CC(NC(=O)C(NC(=O)OC(C)(C)C)C(C)C)C(=O)N1CCCC1C(=O)NCC(=O)NC(C(=O)NCC(=O)O)C(C)C (stereo unspecified) (Boc-VAPGVG-OH; configuration not given here) | > 200 | > 200 µM |  |
| CCNC(=S)N/N=C(/C)c1cccc(/C(C)=N\NC(=S)NCC)n1 | > 200 | 2.19 µM |  |
| N#C/C(=C\c1ccc(O)c(O)c1)C(=O)NCCc1ccc(O)c(O)c1 | > 200 | 30.9 µM |  |
| N/N=C(N)/C(N)=N/N |  |  | inactive |
| CC(=O)Oc1ccc2ccccc2c1Br | > 200 | 112 µM |  |
| COc1ccccc1C(=O)OCC1CCCN2CCCCC12 (stereo unspecified) | > 200 | 27.5 µM |  |
| CCC1CCc2c(c(=O)oc3c2cc(OC)c2cccc(OC)c23)C1 (stereo unspecified) | > 110 | 87.1 µM |  |
| C[N+](C)(C)CC(=O)N/N=c1\cc(C(=O)Nc2ccc(N=O)cc2C#N)oc2cc(O)ccc12 | > 372 | > 372 µM |  |
| Cc1ccc(C2=Nc3cc(C)c(Cl)cc3S(=O)(=O)NN2)cc1 | 34.7 | 87.1 µM |  |
| CCOC(=O)C1(C#N)C(C#N)(C#N)C1(CC)CC (stereo unspecified) | > 200 | 66.1 µM |  |
| Cc1cc(Cl)c2c(c1)C(=O)/C(=C/c1ccc(Cl)cc1)O2 | > 200 | 15.8 µM |  |
